According to US8394848B2, “Compounds that modulate intracellular calcium” (Calcimedica, Inc., priority 2008, dated 2013):

Test system: JR251 or RBL cells
Test: Store-operated calcium entry, either JR251 or RBL cells, or both
Assay type: cell-based
Procedure, shortened: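 Orai1/STIM1 stable cells: fluo-4-AM loaded, compound 30 min at RT in Ca2+-free HBSS, then CaCl2 added; IC50 from Peak-Basal FLIPR fluorescence. RBL-2H3 cells: compound 5 min, then thapsigargin (5.5× stock, 5.5 uM) 25 min, then calcium added; IC50 from Upslope (signal 7 s after calcium minus baseline).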

SMILES	IC50 [µM]
Cc1cc(Cl)ccc1-c1csc(NC(=O)c2nc3ccccc3o2)c1C(=O)O [2-(benzo[d]oxazole-2-carboxamido)-4-(4-chloro-2-methylphenyl)thiophene-3-carboxylic acid]	< 10
O=C(Nc1scc(-c2cc(F)c(Cl)c(F)c2)c1C(=O)O)c1nc2ccccc2o1 [2-(benzo[d]oxazole-2-carboxamido)-4-(4-chloro-3,5-difluorophenyl)thiophene-3-carboxylic acid]	< 10
O=C(Nc1scc(-c2ccc(Cl)c(C(F)(F)F)c2)c1C(=O)O)c1nc2ccccc2o1 [2-(benzo[d]oxazole-2-carboxamido)-4-(4-chloro-3-(trifluoromethyl)phenyl)thiophene-3-carboxylic acid]	< 10
N#Cc1cc(-c2csc(NC(=O)c3nc4ccccc4o3)c2C(=O)O)ccc1Cl [2-(benzo[d]oxazole-2-carboxamido)-4-(4-chloro-3-cyanophenyl)thiophene-3-carboxylic acid]	< 10
O=C(Nc1scc(-c2ccc(Cl)c(F)c2)c1C(=O)O)c1nc2ccccc2o1 [2-(benzo[d]oxazole-2-carboxamido)-4-(4-chloro-3-fluorophenyl)thiophene-3-carboxylic acid]	< 10
COc1cc(-c2csc(NC(=O)c3nc4ccccc4o3)c2C(=O)O)ccc1Cl [2-(benzo[d]oxazole-2-carboxamido)-4-(4-chloro-3-methoxyphenyl)thiophene-3-carboxylic acid]	< 10
O=C(Nc1scc(-c2ccc(Cl)cc2)c1C(=O)O)c1nc2ccccc2o1 [2-(benzo[d]oxazole-2-carboxamido)-4-(4-chlorophenyl)thiophene-3-carboxylic acid]	< 10
N#Cc1ccc(-c2csc(NC(=O)c3nc4ccccc4o3)c2C(=O)O)c(F)c1 [2-(benzo[d]oxazole-2-carboxamido)-4-(4-cyano-2-fluorophenyl)thiophene-3-carboxylic acid]	< 10
Cc1cc(C#N)ccc1-c1csc(NC(=O)c2nc3ccccc3o2)c1C(=O)O [2-(benzo[d]oxazole-2-carboxamido)-4-(4-cyano-2-methylphenyl)thiophene-3-carboxylic acid]	< 10
O=Cc1ccc(-c2csc(NC(=O)c3nc4ccccc4o3)c2C(=O)O)cc1 [2-(benzo[d]oxazole-2-carboxamido)-4-(4-formylphenyl)thiophene-3-carboxylic acid]	< 10
O=C(Nc1scc(-c2ccc(Oc3ccccc3)cc2)c1C(=O)O)c1nc2ccccc2o1 [2-(benzo[d]oxazole-2-carboxamido)-4-(4-phenoxyphenyl)thiophene-3-carboxylic acid]	< 10
O=C(Nc1scc(-c2cc3cccc(O)c3o2)c1C(=O)O)c1nc2ccccc2o1 [2-(benzo[d]oxazole-2-carboxamido)-4-(7-hydroxybenzofuran-2-yl)thiophene-3-carboxylic acid]	< 10
COc1cccc2cc(-c3csc(NC(=O)c4nc5ccccc5o4)c3C(=O)O)oc12 [2-(benzo[d]oxazole-2-carboxamido)-4-(7-methoxybenzofuran-2-yl)thiophene-3-carboxylic acid]	< 10
O=C(Nc1scc(-c2ccc(Cl)cc2)c1C(=O)O)c1ccc2ncoc2c1 [2-(benzo[d]oxazole-6-carboxamido)-4-(4-chlorophenyl)thiophene-3-carboxylic acid]	< 10
Cc1ccc(-c2csc(NC(=O)c3nc4ccccc4s3)c2C(=O)O)c(F)c1F [2-(benzo[d]thiazole-2-carboxamido)-4-(2,3-difluoro-4-methylphenyl)thiophene-3-carboxylic acid]	< 10
Cc1ccc(-c2csc(NC(=O)c3nc4ccccc4s3)c2C(=O)O)c(F)c1 [2-(benzo[d]thiazole-2-carboxamido)-4-(2-fluoro-4-methylphenyl)thiophene-3-carboxylic acid]	< 10
Cc1ccc(-c2csc(NC(=O)c3nc4ccccc4s3)c2C(=O)O)cc1F [2-(benzo[d]thiazole-2-carboxamido)-4-(3-fluoro-4-methylphenyl)thiophene-3-carboxylic acid]	< 10
O=C(Nc1scc(-c2ccc(Br)cc2)c1C(=O)O)c1nc2ccccc2s1 [2-(benzo[d]thiazole-2-carboxamido)-4-(4-bromophenyl)thiophene-3-carboxylic acid]	< 10
O=C(Nc1scc(-c2ccc(Cl)c(F)c2F)c1C(=O)O)c1nc2ccccc2s1 [2-(benzo[d]thiazole-2-carboxamido)-4-(4-chloro-2,3-difluorophenyl)thiophene-3-carboxylic acid]	< 10
O=C(Nc1scc(-c2ccc(Cl)cc2F)c1C(=O)O)c1nc2ccccc2s1 [2-(benzo[d]thiazole-2-carboxamido)-4-(4-chloro-2-fluorophenyl)thiophene-3-carboxylic acid]	< 10
O=C(Nc1scc(-c2cc(F)c(Cl)c(F)c2)c1C(=O)O)c1nc2ccccc2s1 [2-(benzo[d]thiazole-2-carboxamido)-4-(4-chloro-3,5-difluorophenyl)thiophene-3-carboxylic acid]	< 10
O=C(Nc1scc(-c2ccc(Cl)c(F)c2)c1C(=O)O)c1nc2ccccc2s1 [2-(benzo[d]thiazole-2-carboxamido)-4-(4-chloro-3-fluorophenyl)thiophene-3-carboxylic acid]	< 10

SMILES	IC50 [µM]
O=C(Nc1scc(-c2ccc(Cl)cc2)c1C(=O)O)c1nc2ccccc2s1 [2-(benzo[d]thiazole-2-carboxamido)-4-(4-chlorophenyl)thiophene-3-carboxylic acid]	< 10
O=C(Nc1scc(-c2cc3cccc(O)c3o2)c1C(=O)O)c1nc2ccccc2s1 [2-(benzo[d]thiazole-2-carboxamido)-4-(7-hydroxybenzofuran-2-yl)thiophene-3-carboxylic acid]	< 10
Cc1ccc(-c2csc(NC(=O)c3nc4ccccc4s3)c2C(=O)O)cc1 [2-(benzo[d]thiazole-2-carboxamido)-4-p-tolylthiophene-3-carboxylic acid]	< 10
O=C(Nc1scc(-c2ccc(Cl)cc2)c1C(=O)O)c1ccc2scnc2c1 [2-(benzo[d]thiazole-5-carboxamido)-4-(4-chlorophenyl)thiophene-3-carboxylic acid]	< 10
O=C(Nc1scc(-c2ccc(Cl)cc2)c1C(=O)O)c1ccc2ncsc2c1 [2-(benzo[d]thiazole-6-carboxamido)-4-(4-chlorophenyl)thiophene-3-carboxylic acid]	< 10
O=C(Nc1scc(-c2ccc(Cl)cc2)c1C(=O)O)c1nnc2ccccc2n1 [2-(benzo[e][1,2,4]triazine-3-carboxamido)-4-(4-chlorophenyl)thiophene-3-carboxylic acid]	< 10
COc1ccc(-c2csc(NC(=O)c3cc4ccccc4o3)c2C(=O)O)c(F)c1F [2-(benzofuran-2-carboxamido)-4-(2,3-difluoro-4-methoxyphenyl)thiophene-3-carboxylic acid]	< 10
Cc1ccc(-c2csc(NC(=O)c3cc4ccccc4o3)c2C(=O)O)c(F)c1F [2-(benzofuran-2-carboxamido)-4-(2,3-difluoro-4-methylphenyl)thiophene-3-carboxylic acid]	< 10
O=C(Nc1scc(-c2ccc3c(c2)CCC3)c1C(=O)O)c1cc2ccccc2o1 [2-(benzofuran-2-carboxamido)-4-(2,3-dihydro-1H-inden-5-yl)thiophene-3-carboxylic acid]	< 10
O=C(Nc1scc(-c2c(F)cc(F)cc2F)c1C(=O)O)c1cc2ccccc2o1 [2-(benzofuran-2-carboxamido)-4-(2,4,6-trifluorophenyl)thiophene-3-carboxylic acid]	< 10
N#Cc1c(Cl)ccc(-c2csc(NC(=O)c3cc4ccccc4o3)c2C(=O)O)c1Cl [2-(benzofuran-2-carboxamido)-4-(2,4-dichloro-3-cyanophenyl)thiophene-3-carboxylic acid]	< 10
COc1c(Cl)ccc(-c2csc(NC(=O)c3cc4ccccc4o3)c2C(=O)O)c1Cl [2-(benzofuran-2-carboxamido)-4-(2,4-dichloro-3-methoxyphenyl)thiophene-3-carboxylic acid]	< 10
O=C(Nc1scc(-c2ccc(F)c(O)c2F)c1C(=O)O)c1cc2ccccc2o1 [2-(benzofuran-2-carboxamido)-4-(2,4-difluoro-3-hydroxyphenyl)thiophene-3-carboxylic acid]	< 10
COc1c(F)ccc(-c2csc(NC(=O)c3cc4ccccc4o3)c2C(=O)O)c1F [2-(benzofuran-2-carboxamido)-4-(2,4-difluoro-3-methoxyphenyl)thiophene-3-carboxylic acid]	< 10
COc1cc(F)c(-c2csc(NC(=O)c3cc4ccccc4o3)c2C(=O)O)cc1F [2-(benzofuran-2-carboxamido)-4-(2,5-difluoro-4-methoxyphenyl)thiophene-3-carboxylic acid]	< 10
COc1cc(F)c(-c2csc(NC(=O)c3cc4ccccc4o3)c2C(=O)O)c(F)c1 [2-(benzofuran-2-carboxamido)-4-(2,6-difluoro-4-methoxyphenyl)thiophene-3-carboxylic acid]	< 10
O=C(Nc1scc(-c2cc(F)c(F)c(F)c2)c1C(=O)O)c1cc2ccccc2o1 [2-(benzofuran-2-carboxamido)-4-(3,4,5-trifluorophenyl)thiophene-3-carboxylic acid]	< 10
Cc1c(-c2csc(NC(=O)c3cc4ccccc4o3)c2C(=O)O)ccc(Cl)c1Cl [2-(benzofuran-2-carboxamido)-4-(3,4-dichloro-2-methylphenyl)thiophene-3-carboxylic acid]	< 10
O=C(Nc1scc(-c2ccc(Br)c(F)c2F)c1C(=O)O)c1cc2ccccc2o1 [2-(benzofuran-2-carboxamido)-4-(4-bromo-2,3-difluorophenyl)thiophene-3-carboxylic acid]	< 10
Cc1cc(-c2csc(NC(=O)c3cc4ccccc4o3)c2C(=O)O)c(C)cc1Br [2-(benzofuran-2-carboxamido)-4-(4-bromo-2,5-dimethylphenyl)thiophene-3-carboxylic acid]	< 10
O=C(Nc1scc(-c2ccc(Cl)c(F)c2F)c1C(=O)O)c1cc2ccccc2o1 [2-(benzofuran-2-carboxamido)-4-(4-chloro-2,3-difluorophenyl)thiophene-3-carboxylic acid]	< 10
